Measurements from PMC8398451, “Molecular Engineering of Curcumin, an Active Constituent of Curcuma longa L. (Turmeric) of the Family Zingiberaceae with Improved Antiproliferative Activity” (Plants, 2021).

Key:
Format in all cases: cell-based, Human
UACC-257 = experiment: NCI antiproliferative SRB assay, Melanoma panel; conditions: one dose 10 µM
RXF 393 = experiment: NCI antiproliferative SRB assay, Renal Cancer panel; conditions: one dose 10 µM
[1] = system: CNS Cancer cell line panel; experiment: NCI antiproliferative assay, panel summary; conditions: 10 µM
M14 = experiment: NCI antiproliferative SRB assay, Melanoma panel; conditions: one dose 10 µM
OVCAR-8 = experiment: NCI antiproliferative SRB assay, Ovarian Cancer panel; conditions: one dose 10 µM
NCI-H226 = experiment: NCI antiproliferative SRB assay, Non-Small Cell Lung Cancer panel; conditions: one dose 10 µM
MDA-MB-468 = experiment: NCI antiproliferative SRB assay, Breast Cancer panel; conditions: MDA-MB-468; one dose 10 µM
Protocol: The antiproliferative activity of tested compounds was done against five dozen (60) cancer cell lines derived from nine different panels. All of the compounds were evaluated for antiproliferative activity in a single dose at 10 µM. Growth percent (GP) and percent growth inhibition (% GI) were used to calculate antiproliferative activity. […] The antiproliferative results of five-dose assay were calculated as three dose related parameters like, 50% growth inhibition (GI50), 50% lethal concentration (LC50), and total growth inhibition TGI [43, 44, 45, 46, 47].
Human tumor cell lines were grown in RPMI 1640 medium containing 5% fetal bovine serum and 2 mM L-glutamine. For a typical screening experiment, cells were inoculated into 96-well microtiter plates in 100 µL at plating densities ranging from 5000 to 40,000 cells/well, depending on the doubling time of individual cell lines. Two plates of each cell line were fixed in situ with trichloroacetic acid (TCA) after 24 h to represent a cell population measurement for each cell line at the time of drug addition (Ti). The experimental drugs were frozen after being solubilized in dimethyl sulfoxide at 400-fold the desired final maximum test concentration. An aliquot of frozen concentrate was thawed and diluted to twice the desired final maximum test concentration with medium containing 50 µg/mL gentamicin at the time of drug addition. Additional four, 10-fold, or ½ log serial dilutions serial dilutions were performed to provide a total of five drug concentrations plus the control. Aliquots of 100 µL of these different drug dilutions were added to the appropriate microtiter wells already containing 100 µL of medium, resulting in the required final drug concentrations. Following drug addition, the plates are incubated for an additional 48 h at 37 °C, 5% CO2, 95% air, and 100% relative humidity. For adherent cells, the assay is terminated by the addition of cold TCA. Cells are fixed in situ by the gentle addition of 50 µL of cold 50% (w/v) TCA (final concentration, 10% TCA) and incubated for 60 min at 4 °C. The supernatant is discarded, and the plates are washed five times with tap water and air dried. Sulforhodamine B (SRB) solution (100 µL) at 0.4% (w/v) in 1% acetic acid was added to each well, and plates were incubated for 10 min at room temperature. After staining, unbound dye was removed by washing five times with 1% acetic acid and the plates were air dried. Bound stain was subsequently solubilized with 10 mM trizma base, and the absorbance was read on an automated plate reader at a wavelength of 515 nm. For suspension cells, the methodology was the same except that the assay was terminated by fixing settled cells at the bottom of the wells by gently adding 50 µL of 80% TCA (final concentration, 16% TCA). […]
Antiproliferative activity
The anticancer screening was carried ou t as per the NCI US protocol. Using the seven absorbance measurements (time zero, (Ti), control growth, (C), and test growth in the presence of drug at the five concentration levels (Tf)), the percentage growth was calculated at each of the drug concentrations level as [( Tf−Ti × 100 for concentrations for which Tf ≥ Ti, and Tf−Ti × 100 for […]
concentrations for which Tf < Ti.
Three-dose response parameters (GI50, TGI, and LC50) were calculated for each of the experimental agents. Growth inhibition of 50% (GI50) was calculated from 100 × Tf−Ti = 50, , which was […]
the drug concentration resulting in a 50% reduction in the net protein increase (as measured by sulforhodamine B, SRB staining) in control cells during the drug incubation. The total growth inhibition (TGI) was calculated from Tf = Ti, which was the drug concentration resulting in total growth inhibition and signified the cytostatic effect. The LC50 was calculated from 100 × Tf−Ti = −50, , indicating a net loss […]
of cells following treatment which indicated the concentration of drug resulting in a 50% reduction in the […]

KM12 = experiment: NCI antiproliferative SRB assay, Colon Cancer panel; conditions: one dose 10 µM
HCT-116 = experiment: as above; conditions: one dose 10 µM
HOP-62 = experiment: NCI antiproliferative SRB assay, Non-Small Cell Lung Cancer panel; conditions: one dose 10 µM
BT-549 = experiment: NCI antiproliferative SRB assay, Breast Cancer panel; conditions: one dose 10 µM
RPMI-8226 = experiment: NCI antiproliferative SRB assay, Leukemia panel; conditions: one dose 10 µM
SF-539 = experiment: NCI antiproliferative SRB assay, CNS Cancer panel; conditions: one dose 10 µM
COLO 205 = experiment: NCI antiproliferative SRB assay, Colon Cancer panel; conditions: one dose 10 µM
786–0 = experiment: NCI antiproliferative SRB assay, Renal Cancer panel; conditions: one dose 10 µM

## COc1ccc(/C=C/c2cc(/C=C/c3ccc(OC)c(O)c3)n(-c3cccc(Cl)c3)c(=S)n2)cc1O [3a]
UACC-257
  %GI: 47.09%
  GP (growth percent): 52.91
RXF 393
  %GI: 7.37%
  GP (growth percent): 92.63
[1]
  Mean % GI: 14.74%
M14
  %GI: 5.96%
  GP (growth percent): 94.04
OVCAR-8
  %GI: 28.57%
  GP (growth percent): 71.43
NCI-H226
  %GI: 1.46%
  GP (growth percent): 98.54
MDA-MB-468
  %GI: 16.19%
  GP (growth percent): 83.81
KM12
  %GI: 19.67%
  GP (growth percent): 80.33
HCT-116
  %GI: 38.12%
  GP (growth percent): 61.88
HOP-62
  %GI: 4.94%
  GP (growth percent): 95.06
BT-549
  %GI: 27.48%
  GP (growth percent): 72.52
RPMI-8226
  %GI: 39.41%
  GP (growth percent): 60.59
SF-539
  %GI: 6.89%
  GP (growth percent): 93.11
COLO 205
  %GI: −7.08%
  GP (growth percent): 107.08
786–0
  %GI: 5.38%
  GP (growth percent): 94.62
